Experiments:
3×3 ILL = assay: 2DCS selection of microarray-immobilized compounds with 32P-labeled 3×3 ILL, Hit-StARTS analysis of RNA-seq; type: binding; details: Zobs >4
Experimental: The interaction landscape for the ten representative DEL compounds emerging from the FACS screen were then defined by 2DCS (22). In 2DCS, small molecules are site-specifically conjugated to a microarray surface and then probed for binding to an RNA library under highly stringent conditions (FIGS. 2-B & S6). That is, the array is co-incubated with a radioactively labeled RNA library and an excess of competitor oligonucleotides that mimic regions common to all library members. […] To enable site-specific immobilization of compounds 1-10, a C-terminal alkyne handle was installed for CuAAC click (30) coupling to azide-displaying array surfaces. Installation of the alkyne was accomplished by coupling of bromoacetic acid onto rink amide resin followed by nucleophilic displacement with propargylamine prior to the synthesis of the SPDEL compounds (FIG. 2A).
All ten compounds bound to the 3×3 ILL under the highly stringent conditions described above, almost all dose-dependently (FIG. 2B). The RNAs bound to each small molecule were harvested, reverse transcribed into DNA, and sequenced by RNA-seq. The resulting data set was statistically analyzed by using High Throughput Structure-Activity Relationships Through Sequencing (Hit-StARTS) (31) in which the relative frequency of each selected RNA is compared to the frequency of that RNA in the starting library (pooled population comparison). (31) The statistical significance of the enrichment of selected RNAs is quantified by Zobs, which correlates with affinity and selectivity. (31) Here, a cut-off of Zobs >4 was employed, which was empirically determined from measured affinities via evaluation of compound 9 binding with potential RNA motifs extracted from the 2DCS (FIGS. 2-B, 13, & 14). […] This cut-off afforded, on average, 60±40 (range: 6-155) preferred, or privileged, RNA 3D folds for each compound. Compound 6 bound to largest number of RNA targets (n=155) while compound 9 bound the fewest (n=6) (FIG. 14). […]

[1] = molecular target: 5′GAG/3′CCC loop at pri-miR-27a's Drosha site; assay: Binding affinity by microscale thermophoresis (MST), Cy5-labeled RNA; parameters: species or system human
Experimental: (§1) Binding affinity measurements: Binding affinities were measured by microscale thermophoresis (MST), performed on a Monolith NT.115 system (NanoTemper Technologies) with Cy5-labeled RNAs. These RNAs include: the 5′GAG/3′CCC SEQ ID NO: 16 loop at pri-miR-27a's Drosha site (Sequence:/5′-Cy5/rCrUrGrArGrGrUrGrArArArCrArUrCrCrCrArG SEQ ID NO: 17; Dharmacon), a related internal loop not selected by 9. 5′CAG/3′GCC SEQ ID NO: 17 loop (Sequence:/5′-Cy5/rCrUrCrArGrGrUrGrArArArCrArUrCrCrGrArG SEQ ID NO: 16; Dharmacon), and an RNA in which the loop is mutated to a base pair (Sequence:/5-Cy5/rCrUrGrArGrGrUrGrArArArCrArUrCrUrCrArG SEQ ID NO: 16; Dharmacon).
(§2) Briefly, Cy5-labeled RNA (10 nM) was prepared in 1× Binding Buffer and folded by heating at 60° C. for 5 min and then slowly cooling to room temperature. After cooling, Tween-20 was added to a final concentration of 0.1% (v/v). Compound solutions were prepared separately in 20 μL of 1× Binding Buffer at a final concentration of 5 μM (1% (v/v) DMSO), followed by 1:1 serial dilutions in 1× Binding Buffer. RNA and compound solutions were then mixed 1:1 by volume to a total of 20 μL.
(§3) Samples were incubated for 20 min at room temperature and then loaded into premium capillaries (NanoTemper Tech, Cat #MO-K025). The following parameters were used for MST measurements: 5-20% LED power (adjusted to keep fluorescence intensity between 2000 and 8000), 80% MST power, Laser-On time=30 s, Laser-Off time=25 s. The resulting data were analyzed by calculating the change in thermophoresis as a function of compound concentration and fitted by Equation 1, a one site binding model, in NanoTemper Tech's MST analysis software to yield the dissociation constant (Kd):
(§4) Where F is the concentration of fluorescently labeled RNA; unbound and bound refer to the thermophoresis signal at completely unbound and bound state of RNA, respectively; c is the concentration of the compound; f (c) is the thermophoresis signal at compound concentration of c; and Kd is the dissociation constant.

[2] = test system: fully paired RNA (loop mutated to a base pair); assay: Binding affinity by MST, Cy5-labeled fully paired RNA
Experimental: as §1, §2, §3, §4

5′CAG/3′GCC loop = assay: Binding affinity by MST, Cy5-labeled mutated loop RNA; parameters: species or system human; details: mutated loop 5′CAG/3′GCC
Experimental: as §1
Briefly, Cy5-labeled RNA (10 nM) was prepared in 1× Binding Buffer and folded by heating at 60° C. for 5 min and then slowly cooling to room temperature. […]
as §3, with “(Kd): […]” for “(Kd):”

pri-miR-27a = assay: RT-qPCR of pri- and mature miR-27a in MDA-MB-231 TNBC cells; type: cell-based, human; details: MDA-MB-231, RT-qPCR
Experimental: Cell lines. Compounds were tested in MDA-MB-231 TNBC cells (HTB-26, ATCC), LNCaP metastatic prostate cancer cells (gifted from Junli Luo lab), MCF-7 (HTB-22, ATCC) breast cancer cells, HeLa cervical adenocarcinoma cells (CCL-2, ATCC), and MCF-10a, a model of healthy breast epithelial cells (CRL-10317, ATCC).
Cell culture and compound treatment. All cells were maintained at 37° C. with 5% CO2. MDA-MB-231 and LNCaP cells were cultured in RPMI 1640 medium with L-glutamine & 25 mM HEPES (Corning) supplemented with 10% (v/v) fetal bovine serum (FBS; Sigma) and 1× (v/v) Antibiotic-Antimycotic solution (Corning). MCF-7 and HeLa cells were cultured in DMEM medium with 4.5 g/L glucose (Corning), supplemented with 10% FBS, 1× (v/v) Glutagro (Corning), and 1× (v/v) Antibiotic-Antimycotic solution. MCF10a cells were cultured in DMEM/F12 50/50 with L-glutamine & 15 mM HEPES (Corning), supplemented with 10% FBS, 20 ng/mL human epidermal growth factor (Pepro Tech Inc.), […] hydrocortisone (Pfaltz & Bauer), 100 ng/mL cholera toxin (Sigma-Aldrich), 10 μg/mL insulin (Sigma-Aldrich), and 1× (v/v) Antibiotic-Antimycotic solution.
MCF-10a cells were transfected with plasmids to express pri-miR-27a and mutant pri-miR-27a in 12- or 24-well plates with Lipofectamine 2000 per the manufacturer's protocol. For treatment of compounds, stocks were diluted in growth medium and added to cells for 48 h. The miRCURY miR-27a LNA inhibitor (QIAGEN, Cat #339121) was used as a positive control by diluting in growth medium to a final concentration of 1 nM. The miRCURY LNA Negative Control (QIAGEN, Cat #YI00199007-DDA) was used as a negative control, which has also diluted in growth medium to a final concentration of 1 nM.
Analysis of mRNA abundance: Each cell line was grown as a monolayer in 12- or 24-well plates and treated as described in “Cell culture and compound treatment”. After 48 h, the cells were lysed, and total RNA was harvested using a Zymo Quick RNA Miniprep Kit per the manufacturer's protocol. To measure the abundance of mature miRNAs, approximately 250 ng of total RNA was reverse transcribed using the High Flex Buffer provided in a miScript II RT Kit (Qiagen) per the manufacturer's protocol (10 μL total reaction volume). For pri-miRNAs and mRNA, approximately 300 ng of total RNA was reverse transcribed using a qScript cDNA synthesis kit (10 μL total reaction volume, Quanta BioSciences). For all types of RNAs, 2 μL of the RT reaction was used for qPCR using SYBR Green Master Mix and a QuantStudio™ 5 Real-Time PCR System. Relative abundance of mature miRNAs was calculated by normalizing to RNU6, and relative abundance for pri-miRNAs and mRNAs was calculated by normalizing to 18S ribosomal RNA, using the […]. (12)

Compound | number of RNA motifs bound that are unique to the compound (3×3 ILL) | saturable binding [2] | other results
C#CCN(CC(N)=O)C(=O)C(CC(C)C)N1CC[C@H](NC(=O)[C@@H]2C[C@H](N)CN2C(=O)c2c[nH]c3ccc(Cl)cc23)C1=O (some centres unmarked) [Compound 3] | 41 | – | –
C#CCN(CC(N)=O)C(=O)C(CC(C)C)N1CC[C@H](NC(=O)[C@@H]2C[C@@H](N)CN2C(=O)c2c[nH]c3ccc(Cl)cc23)C1=O (some centres unmarked) [Compound 4] | 2 | – | –
C#CCN(CC(N)=O)C(=O)C1CCN1C(=O)C1CC(N)CN1C(=O)c1ccccc1C(=O)N1CCOCC1 (centres unmarked) [Compound 5] | – | Saturable binding was not observed | Kd [1]: 0.7 ± 0.1 µM
C#CCN(CC(N)=O)C(=O)C[C@H](Cc1c[nH]c2ccccc12)NC(=O)[C@@H]1C[C@@H](NC(=O)Cn2c(=O)[nH]c3ccccc3c2=O)CN1 [Compound 10] | – | binds to none of the three RNAs | binding [1]: binds to none of the three RNAs; binding (5′CAG/3′GCC loop): binds to none of the three RNAs; inhibition of miR-27a (comparison of 5, 7, 9, 10) (pri-miR-27a): inactive
